Test results reported in patent US8921273B2, “Substituted pyridazines having herbicidal action” (BASF SE, priority 2010, dated 2014).

Experiments:
Assay in all cases: greenhouse herbicidal activity, post-emergence treatment
Conditions in all cases: application rate 0.5 kg/ha, scale from 0 to 100
CHEAL = format: in vivo, Chenopodium album
Source text: (§1) The seeds of the test plants were sown separately for each species. For the post-emergence treatment, the test plants were first grown to a height of 3 to 15 cm, depending on the plant habit, and only then treated with the active ingredients which had been suspended or emulsified in water. For this purpose, the test plants were either sown directly and grown in the same containers, or they were first grown separately as seedlings and transplanted into the test containers a few days prior to treatment. Depending on the species, the plants were kept at 10-25° C. or 20-35° C. The test period extended over 2 to 4 weeks. During this time, the plants were tended, and their response to the individual treatments was evaluated. Evaluation was carried out using a scale from 0 to 100. 100 means no emergence of the plants, or complete destruction of at least the aerial moieties, and 0 means no damage, or normal course of growth. A good herbicidal activity is given at values of at least 70 and a very good herbicidal activity is given at values of at least 85. The plants used in the greenhouse experiments belonged to the following species: [table]

ECHCG = format: in vivo, Echinochloa crus-galli
Source text: as §1

AMARE = format: in vivo, Amaranthus retroflexus
Source text: as §1

GALAP = format: in vivo, Galium aparine
Source text: as §1

| Compound | herbicidal activity against CHEAL (CHEAL) | herbicidal activity against ECHCG (ECHCG) | herbicidal activity against AMARE (AMARE) | herbicidal activity against GALAP (GALAP) |
| --- | --- | --- | --- | --- |
| O=c1c(-c2cc(Cl)cc(N3CCOCC3)c2C(F)(F)F)c(O)c2nccnc2n1CC(F)F [I-1, 7-[5-chloro-3-morpholino-2-(trifluoromethyl)phenyl]-5-(2,2-difluoroethyl)-8-hydroxy-pyrido[2,3-b]pyrazin-6-one] | very good herbicidal activity (a very good herbicidal activity is given at values of at least 85) | very good herbicidal activity (a very good herbicidal activity is given at values of at least 85) |  |  |
| O=c1c(-c2cccc(C3=NOCC3)c2C(F)(F)F)c(O)c2nccnc2n1CC(F)F [I-2, 5-(2,2-difluoroethyl)-7-[3-(4,5-dihydroisoxazol-3-yl)-2-(trifluoromethyl)phenyl]-8-hydroxy-pyrido[2,3-b]pyrazin-6-one] |  |  | very good herbicidal activity (a very good herbicidal activity is given at values of at least 85) | very good herbicidal activity (a very good herbicidal activity is given at values of at least 85) |
